Results taken from patent publication US20040161839A1, “Method to alter sugar moieties” (priority 2003, published 2004).

T1: DesI (Streptomyces venezuelae, UniProt Q9ZGH0)
T1 sequence (Q9ZGH0 1-415): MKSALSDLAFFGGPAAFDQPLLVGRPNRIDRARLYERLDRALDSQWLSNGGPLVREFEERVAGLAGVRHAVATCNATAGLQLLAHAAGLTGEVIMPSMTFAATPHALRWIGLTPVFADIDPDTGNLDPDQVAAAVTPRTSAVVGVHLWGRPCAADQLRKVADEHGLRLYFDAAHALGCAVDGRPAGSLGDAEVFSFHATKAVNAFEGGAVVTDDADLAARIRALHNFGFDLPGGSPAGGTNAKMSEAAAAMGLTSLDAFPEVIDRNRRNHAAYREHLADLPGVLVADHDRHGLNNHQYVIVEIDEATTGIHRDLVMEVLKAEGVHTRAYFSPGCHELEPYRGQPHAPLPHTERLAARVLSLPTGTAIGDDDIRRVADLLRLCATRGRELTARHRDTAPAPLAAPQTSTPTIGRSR


Columns and labels:
[1] = target: cytochrome P450 hydroxylase (PikC) (Streptomyces venezuelae, UniProt O87605); assay: Incubation with purified PikC in vitro (aglycone hydroxylation); type: biochemical
Source text: Another noteworthy, albeit unexpected result was the fact that the aglycone of the isolated macrolide 31 was 10-deoxymethynolide instead of methymycin and neomethymycin analogues that are hydroxylated. […] It is possible that the cytochrome P450 hydroxylase (PikC), which catalyzes the hydroxylation of 10-deoxymethynolide and narbonolide (Xue et al., 1998) is sensitive to structural variations on the appended sugar. […] A similar observation was also noted in the case where desosamine was replaced by quinovose (Example 4). It could be argued that the presence of a substituent (either hydroxyl or amino group) at C-4 in the sugar moiety is responsible, at least in part, for decreasing or preventing hydroxylation of the macrolide.

Streptococcus pyogenes = assay: Antibiotic activity, filter paper disc test on agar plates; type: cell-based; details: for activity against Streptococcus pyogenes grown on Mueller-Hinton agar plates: purified compounds; for antibiotic activity against Streptococcus pyogenes (inhibition zone around disc): 20 μL of each sample (1.6 mM in MeOH) on filter paper discs, Mueller-Hinton agar plates, overnight at 37° C.
Description: The antibiotic activity of a compound of formula (13) and (14) against Streptococcus pyogenes was examined by separately applying 20 μL of each sample (1.6 mM in MeOH) to sterilized filter paper discs which were placed onto the surface of S. pyogenes grown on Mueller-Hinton agar plates (Mangahas, 1996).

DNA = details: tight DNA binding, literature; cited from earlier work
DesI = target: T1, DesI; assay: Incubation with purified DesI in the presence of L-glutamate, HPLC analysis; 4-aminotransferase kinetics; type: biochemical
Source text: To verify the catalytic function of DesI, the desI gene was amplified by PCR and cloned into the pET-28b(+) expression vector (Novagen) with a His6-tag at the N-terminus. The produced DesI protein was purified to near homogeneity by a Ni-NTA column (Qiagen) followed by FPLC on a MonoQ column.

[2] = substrate: Cc1cn([C@H]2C[C@H](O)[C@@H](COP(=O)(O)OP(=O)(O)O[C@H]3O[C@H](C)C(=O)[C@H](O)[C@H]3O)O2)c(=O)[nH]c1=O; assay: as above; type: biochemical, Streptomyces venezuelae; details: other: DesI as PLP-dependent 4-aminotransferase, sugar substrate 6

cytochrome P450 hydroxylase (PikC), sequence (O87605 whole entry): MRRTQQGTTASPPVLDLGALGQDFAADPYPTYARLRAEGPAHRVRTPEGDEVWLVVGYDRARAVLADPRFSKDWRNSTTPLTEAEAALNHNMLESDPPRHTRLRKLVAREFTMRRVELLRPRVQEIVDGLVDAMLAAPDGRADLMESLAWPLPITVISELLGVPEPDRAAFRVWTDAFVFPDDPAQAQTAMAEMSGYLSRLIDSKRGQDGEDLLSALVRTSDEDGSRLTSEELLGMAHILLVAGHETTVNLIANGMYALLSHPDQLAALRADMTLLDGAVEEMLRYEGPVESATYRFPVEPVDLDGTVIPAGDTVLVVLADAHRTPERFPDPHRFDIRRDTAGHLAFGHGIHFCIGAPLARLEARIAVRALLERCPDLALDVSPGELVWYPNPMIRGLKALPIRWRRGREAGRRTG

Row | Molecule | activity against Streptococcus pyogenes grown on Mueller-Hinton agar plates (Streptococcus pyogenes) | antibiotic activity against Streptococcus pyogenes (inhibition zone around disc) (Streptococcus pyogenes) | also measured
1 | CCC1OC(=O)C(C)C(OC2OC(C)C(NC(C)=O)C(O)C2O)C(C)CC(C)C(=O)C=CC1C (centres unmarked) [compound 31] | inactive | – | aglycone hydroxylation on incubation with purified PikC [1]: no aglycone hydroxylation was discernible
2 | CCC1OC(=O)C(C)C(=O)C(C)C(OC2OC(C)C(NC(C)=O)C(O)C2O)C(C)CC(C)C(=O)C=CC1C (centres unmarked) [compound 32] | inactive | – | aglycone hydroxylation on incubation with purified PikC [1]: no aglycone hydroxylation was discernible
3 | calicheamicin [calicheamicin (26)] | – | – | Ka (DNA binding) (DNA): 10^6-10^8
4 | CC[C@H]1OC(=O)[C@H](C)[C@@H](O[C@@H]2O[C@H](C)C[C@H](N(C)C)[C@H]2O)[C@@H](C)C[C@@H](C)C(=O)/C=C/[C@]1(C)O [formula (1), methymycin] | clearly visible inhibition zones | clearly visible inhibition zones | –
5 | C[C@@H]1C[C@H](N(C)C)[C@@H](O)[C@H](O[C@H]2[C@@H](C)C[C@@H](C)C(=O)/C=C/[C@@H](C)[C@@H]([C@@H](C)O)OC(=O)[C@@H]2C)O1 [formula (2), neomethymycin] | clearly visible inhibition zones | clearly visible inhibition zones | –
6 | CCC1OC(=O)C(C)C(OC2OC(C)CC(N(C)C)C2O[C@@H]2O[C@H](CO)[C@@H](O)[C@H](O)[C@H]2O)C(C)CC(C)C(=O)C=CC1(C)O (stereo partly drawn) [formula (13), C-2′β-glucosylated methymycin] | – | no such clearings were discernible | –
7 | CC[C@H]1OC(=O)[C@H](C)C(=O)[C@H](C)[C@@H](O[C@@H]2O[C@H](C)C[C@H](N(C)C)[C@H]2O)[C@@H](C)C[C@@H](C)C(=O)/C=C/[C@]1(C)O [pikromycin] | clearly visible inhibition zones | – | –
8 | Cc1cn(C2CC(O)C(COP(=O)(O)OP(=O)(O)OC3OC(C)C(O)C(=O)C3O)O2)c(=O)[nH]c1=O [TDP-3-keto-deoxy-D-glucose (7), TDP-3-keto-deoxy-D-glucose] | – | – | consumption of substrate / formation of new product by DesI (DesI): no consumption
9 | CC1CC(N(C)C)C(O[C@@H]2O[C@H](CO)[C@@H](O)[C@H](O)[C@H]2O)C(OC2C(C)CC(C)C(=O)C=CC(C)C(C(C)O)OC(=O)C2C)O1 (stereo partly drawn) [formula (14), C-2′β-glucosylated neomethymycin] | – | no such clearings were discernible | –
10 | DesI (Streptomyces venezuelae) (protein) MKSALSDLAFFGGPAAFDQPLLVGRPNRIDRARLYERLDRALDSQWLSNGGPLVREFEERVAGLAGVRHAVATCNATAGLQLLAHAAGLTGEVIMPSMTFAATPHALRWIGLTPVFADIDPDTGNLDPDQVAAAVTPRTSAVVGVHLWGRPCAADQLRKVADEHGLRLYFDAAHALGCAVDGRPAGSLGDAEVFSFHATKAVNAFEGGAVVTDDADLAARIRALHNFGFDLPGGSPAGGTNAKMSEAAAAMGLTSLDAFPEVIDRNRRNHAAYREHLADLPGVLVADHDRHGLNNHQYVIVEIDEATTGIHRDLVMEVLKAEGVHTRAYFSPGCHELEPYRGQPHAPLPHTERLAARVLSLPTGTAIGDDDIRRVADLLRLCATRGRELTARHRDTAPAPLAAPQTSTPTIGRSR | – | – | Km [2]: 130 ± 4 µM
